In the CombiSolv-Exp solvation set (Vermeire and Green 2021):

Test: solvent given as SMILES

CC(=O)Oc1ccccc1C(=O)O
Conditions | solvation free energy, 298 K [kcal/mol]
in C1CCOC1 | -14.3
in C1COCCO1 | -14.1
in CC(=O)CC(C)C | -13.2
in CC(=O)OC(C)C | -13.1
in CC(C)(C)O | -13.7
in CC(C)=O | -14.1
in CC(C)CCO | -13.4
in CC(C)CO | -13.2
in CC(C)O | -13.6
in CC(C)OC(C)C | -12.4
in CCC(C)=O | -13.7
in CCC(C)O | -13.5
in CCCC(=O)OC | -13.1
in CCCC(C)O | -13.3
in CCCCCCCCCCO | -12.9
in CCCCCCCO | -13.1
in CCCCCCO | -13.2
in CCCCCO | -13.3
in CCCCO | -13.4
in CCCCOC(C)=O | -13.1
in CCCO | -13.6
in CCO | -14
in CCOC(C)=O | -13.5
in CCOCC | -13.2
in CO | -14.1
in COC(C)(C)C | -13.2
in COC(C)=O | -13.6

O=C(O)c1ccc([N+](=O)[O-])cc1
Conditions | solvation free energy, 298 K [kcal/mol]
in C1CCOC1 | -13.3
in C1COCCO1 | -13.1
in CC(C)(C)O | -12.4
in CC(C)CCO | -11.9
in CC(C)CO | -11.9
in CC(C)O | -12.2
in CC(C)OC(C)C | -11.3
in CC(C)OCCO | -12.6
in CC(O)COC(C)(C)C | -12.6
in CCC(C)O | -12.1
in CCCC(C)O | -12
in CCCCCCCCCCO | -11.7
in CCCCCCCCO | -11.8
in CCCCCCCO | -11.9
in CCCCCCO | -12
in CCCCCO | -12
in CCCCCOC(C)=O | -11.7
in CCCCO | -12
in CCCCOC(C)=O | -11.9
in CCCCOCCO | -12.5
in CCCO | -12.2
in CCCOCCO | -12.6
in CCO | -12.3
in CCOC(C)=O | -12.2
in CCOCC | -12.2
in CCOCCO | -12.8
in CN(C)C=O | -12.8
in CO | -12.5
in COC(C)=O | -12.4
in COC(C)CCO | -12.6
in O | -9.44

CCCN(CC1CC1)c1c([N+](=O)[O-])cc(C(F)(F)F)cc1[N+](=O)[O-]
Conditions | solvation free energy, 298 K [kcal/mol]
in O | -2.45

CC1CCC(C)(C)C1 (stereo not given)
Conditions | solvation free energy, 298 K [kcal/mol]
in O | 2.47

CC(C)C(C)c1ccc(CC(=O)O)cc1 (stereo not given)
Conditions | solvation free energy, 298 K [kcal/mol]
in O | -7.99

CC(C)Cc1ccc(C(C)C(=O)O)cc1 (stereo not given)
Conditions | solvation free energy, 298 K [kcal/mol]
in CC(C)CO | -13.2
in CC(C)O | -13.4
in CCC(C)O | -13.2
in CCCCCCCCCCO | -13
in CCCCCCCO | -13.1
in CCCCCCO | -13.2
in CCCCCO | -13.1
in CCCCO | -13.1
in CCCO | -13.2
in CCO | -13.1
in CN(C)C=O | -13.1
in CO | -13.1
in Clc1ccccc1 | -11.9
in NC=O | -10.9
in O | -7

CCOC(C)O (stereo not given)
Conditions | solvation free energy, 298 K [kcal/mol]
in O | -6.7

COC(=O)CC#N
Conditions | solvation free energy, 298 K [kcal/mol]
in O | -6.72

COCCO
Conditions | solvation free energy, 298 K [kcal/mol]
in C1CCOC1 | -5.45
in COC(C)=O | -5.46
in O | -6.77

ClCc1ccccc1
Conditions | solvation free energy, 298 K [kcal/mol]
in C1COCCO1 | -7.23
in CC(C)(C)O | -6.07
in CC(C)O | -5.99
in CCCCO | -6.08
in CCCO | -6.06
in CCO | -6.22
in CO | -6.37
in O | -1.88

Cc1ccccc1C(=O)O
Conditions | solvation free energy, 298 K [kcal/mol]
in C1CCOC1 | -9.3
in C1COCCO1 | -9.26
in CC(C)(C)O | -9.12
in CC(C)CCO | -8.95
in CC(C)CO | -8.82
in CC(C)O | -9.06
in CC(C)OC(C)C | -8.56
in CCC(C)O | -9.01
in CCCC(C)O | -8.98
in CCCCCCCCCCO | -8.7
in CCCCCCCCO | -8.76
in CCCCCCCO | -8.81
in CCCCCCO | -8.86
in CCCCCO | -8.91
in CCCCCOC(C)=O | -8.7
in CCCCO | -8.96
in CCCCOC(C)=O | -8.76
in CCCO | -9.01
in CCO | -9.12
in CCOC(C)=O | -8.91
in CCOCC | -8.95
in COC(C)=O | -8.92
in O | -5.87

O=NN1CCCCC1
Conditions | solvation free energy, 298 K [kcal/mol]
in O | -6.34

CCCCCCCCCCCC(=O)OC
Conditions | solvation free energy, 298 K [kcal/mol]
in O | -2.91

CC(=O)OC1CCC2(C)C(=CCC3C2CCC2(C)C(C(C)CCCC(C)C)CCC32)C1 (stereo not given)
Conditions | solvation free energy, 298 K [kcal/mol]
in O | -5.48

COC(=O)c1ccc([N+](=O)[O-])cc1
Conditions | solvation free energy, 298 K [kcal/mol]
in CN(C)C=O | -10.8
in O | -6.76

CCCOC(=O)c1ccccc1O
Conditions | solvation free energy, 298 K [kcal/mol]
in O | -3.66

FC(F)(F)c1cccc(C(F)(F)F)c1
Conditions | solvation free energy, 298 K [kcal/mol]
in O | 1.07

COc1cc(NS(=O)(=O)c2ccc(N)cc2)nc(OC)n1
Conditions | solvation free energy, 298 K [kcal/mol]
in O | -18.9

O=C(O)c1cccnc1Nc1cccc(C(F)(F)F)c1
Conditions | solvation free energy, 298 K [kcal/mol]
in C1COCCO1 | -17.9
in CC(C)=O | -17.7
in CCCCCCCCO | -17.1
in CCOC(C)=O | -17.3
in CCOCC | -16.5
in CN(C)C=O | -19.1
in Clc1ccccc1 | -15.5
in NC=O | -16.1
in O | -12.8

CC(C)OC(C)C
Conditions | solvation free energy, 298 K [kcal/mol]
in Brc1cccc2ccccc12 | -3.49
in CC(=O)N(C)C | -3.41
in CC(=O)OCc1ccccc1 | -3.49
in CC(C)CC(C)(C)C | -3.78
in CCC(C)=O | -3.9
in CCC(C)Cl | -4.16
in CCC(C)O | -3.75
in CCCCCCCC | -3.84
in CCCCCCCCCCO | -3.43
in CCCCCCCCO | -3.63
in CCCCCl | -4.18
in CCCCN(C=O)CCCC | -3.48
in CCCCO | -3.75
in CCCO | -3.79
in CCN1CCCC1=O | -3.23
in CCN(CC)C(C)=O | -3.51
in CCNC(C)=O | -3.33
in CCNC=O | -3.23
in CN1CCCCC1=O | -3.27
in CN(C)C=O | -3.19
in CNC(C)=O | -3.25
in CNC=O | -3.04
in CO | -3.82
in ClC(Cl)(Cl)Cl | -4.23
in [2H]O[2H] | -1.56
in c1ccc2ncccc2c1 | -3.45

c1ccc2c(c1)Oc1ccccc1O2
Conditions | solvation free energy, 298 K [kcal/mol]
in O | -3.15

Clc1ccccc1Cl
Conditions | solvation free energy, 298 K [kcal/mol]
in C1CCOC1 | -7.11
in C1COCCO1 | -7.01
in CCCCCC | -6.14
in CCCCCCC | -6.01
in CCCCCCCCCCCCCCCC | -6.04
in CCCCCCCCO | -5.95
in CN(C)C=O | -6.82
in ClC(Cl)(Cl)Cl | -6.79
in N#Cc1ccccc1 | -6.82
in NC=O | -4.55
in O | -1.4

CCCCCBr
Conditions | solvation free energy, 298 K [kcal/mol]
in O | -0.1

Oc1ccc(O)cc1
Conditions | solvation free energy, 298 K [kcal/mol]
in CCCCCC | -6.25
in CCCCCCCC | -6.58
in CCCCOC(C)=O | -12.2
in CCOC(C)=O | -12.3
in Cc1ccc(C)cc1 | -8.81
in Cc1cccc(C)c1 | -8.88
in Cc1ccccc1C | -8.88
in O | -12.1

CNC
Conditions | solvation free energy, 298 K [kcal/mol]
in CCCCCC | -2.48
in CCCCCCCCCC | -2.31
in CCCCCCCCO | -2.73
in CCCO | -2.99
in CCO | -3.27
in CN(C)C=O | -2.88
in CO | -3.51
in ClC(Cl)(Cl)Cl | -2.88
in N#Cc1ccccc1 | -2.8
in O | -4.3

O=C(OC1CCCCCC1)c1ccccc1C(=O)OC1CCCCCC1
Conditions | solvation free energy, 298 K [kcal/mol]
in O | -8.87

CC(C)COC(=O)C(C)C
Conditions | solvation free energy, 298 K [kcal/mol]
in O | -1.69

Cc1ccc(C)cc1
Conditions | solvation free energy, 298 K [kcal/mol]
in CC#N | -5.16
in CC(C)CC(C)(C)C | -5.39
in CC(C)CO | -4.94
in CC(O)CO | -4.14
in CCCCCCC | -5.45
in CCCCCCCCCCCCCCCC | -5.27
in CCCCCCCCO | -5.17
in CCCCOC(C)=O | -6.1
in CCO | -5.09
in CNC=O | -4.8
in COCCO | -5.06
in ClC(Cl)(Cl)Cl | -5.73
in ClCCCl | -5.96
in NC=O | -3.27
in NCCO | -3.84
in O | -0.75
in O=CN1CCOCC1 | -4.98
in OCCO | -3.4
in OCCOCCO | -4.23
in OCCOCCOCCO | -4.37

ClC(Cl)=C(c1ccc(Cl)cc1)c1ccc(Cl)cc1
Conditions | solvation free energy, 298 K [kcal/mol]
in CCCCCCCCC=CCCCCCCCC(=O)OCC(COC(=O)CCCCCCCC=CCCCCCCCC)OC(=O)CCCCCCCC=CCCCCCCCC | -12.8
in CCCCCCCCO | -13.2
in O | -3.78

CC(C)N
Conditions | solvation free energy, 298 K [kcal/mol]
in CCCCCC | -2.78

O=c1cc(-c2ccc(O)c(O)c2)oc2cc(O)cc(O)c12
Conditions | solvation free energy, 298 K [kcal/mol]
in CC(C)O | -25.4
in CCCCO | -25.2
in CCCO | -25.5
in CCO | -25.5

CCCOCCC
Conditions | solvation free energy, 298 K [kcal/mol]
in C=CCCCCCCCCCCCCCC | -4
in CC(C)(C)O | -4.13
in CC(C)CO | -4.17
in CC(C)O | -4.02
in CCC(C)=O | -4.37
in CCC(C)O | -4.15
in CCCCCCCCCCCCCCCC | -4.02
in CCCCCCCCO | -4.05
in CCCCCCO | -4.12
in CCCCCl | -4.68
in CCCCO | -4.13
in CN(C)C=O | -3.62
in CO | -3.94
in ClC(Cl)(Cl)Cl | -4.83
in ClCCl | -5.02
in O | -1.23
in [2H]O[2H] | -1.37

C=C(C)C1CC=C(C)C(O)C1 (stereo not given)
Conditions | solvation free energy, 298 K [kcal/mol]
in O | -4.44

CCC(CC)CO
Conditions | solvation free energy, 298 K [kcal/mol]
in O | -3.73
